“Also recorded” adds a separate entry of the source.
Key:
[1] = test system: microdissected human scalp HFs; test: Organ culture of microdissected human HFs with CHS: OR2A4/7 expression and HF stem cell/progeny number by quantitative (immuno)histomorphometry; type: cell-based; settings: 50 μM CHS vs vehicle, 6 days
Protocol: (§1) Temporal and occipital human scalp skin was obtained from healthy donors (38-69 years old) undergoing routine face-lift surgery. Scalp skin samples were processed for HF microdissection (Edelkamp J, Gherardini J, Bertolini M, Methods to study human hair follicle growth ex vivo: human microdissected hair follicle and human full thickness skin organ culture, Methods Mol. Biol. 2154 (2020) 105-119).
Microdissected human scalp HFs were cultured at 37° C. with 5% CO2 in a minimal media of William's E media (WEM, Gibco, Life Technologies) supplemented with 2 mM of L-glutamine (Gibco), 10 ng/ml hydrocortisone (Sigma-Aldrich), 10 μg/ml insulin (Sigma-Aldrich), and 1% penicillin/streptomycin mix (Gibco) 25,26,62. After microdissection, the HFs were first incubated in WEM for 24 h for re-equilibration.
HFs after quality control (fully pigmented and presence in anagen VI phase) were randomly allocated to the different experimental groups.
After 24 h, WEM mediμm was replaced and HFs were treated with vehicle or 50 μM CHS for 6 days for (immuno) histomorphometry.
OCT-embedded samples were sectioned (6 μm thickness for HF and 7 μm thickness for skin) with a Leica cryostat. Sections obtained from the organ culture were stained using OR2A4/7 and integrin α-6 antibodies. A double-staining, […] wa salso performed. Sections without primary antibody were used as negative control. […]
Staining intensity was evaluated in well-defined reference areas by quantitative (immuno-) histomorphometry (Fischer T W, et al. Differential effects of caffeine on hair shaft elongation, matrix and outer root sheath keratinocyte proliferation, and transforming growth factor-B2/insulin-like growth factor-1-mediated regulation of the hair cycle in male and female human hair follicles in vitro. Br. J. Dermatol. 2014;171:1031-1043. doi: 10.1111/bjd.13114.; Samuelov L, et al. P-cadherin regulates human hair growth and cycling via canonical Wnt signaling and transforming growth factor-62. J. Invest. […]

[2] = test system: microdissected human scalp HFs; test: Organ culture of microdissected HFs with CHS: hair cycle staging and hair matrix keratinocyte proliferation (Ki-67/TUNEL, Masson Fontana); type: cell-based; settings: 50 μM CHS vs vehicle, 6 days
Description: as §1, with “105-119). […]” for “105-119).”
OCT-embedded samples were sectioned (6 μm thickness for HF and 7 μm thickness for skin) with a Leica cryostat. […] Images were taken using a Keyence fluorescence microscope BZ9100 (Osaka, Japan) maintaining a constant set exposure time throughout imaging for further analysis.
HFs were microscopically evaluated for the hair cycle staging analysis using Masson-Fontana histochemistry and Ki-67/TUNEL immunostainings (Langan EA, et al. Human hair follicle organ culture: theory, application and perpsectives. Exp. Dermatol. 2015;24:903-911. doi: 10.1111/exd.12836; Kloepper JE, et al. Methods in hair research: how to objectively distinguish between anagen and catagen in human hair follicle organ culture. Exp. Dermatol. 2010;19:305-312. doi: 10.1111/j.1600-0625.2009.00939.x;). […]

OR2A4/7 [3] = test: Intracellular Ca2+ signals in human melanocytes; type: cell-based
OR2A4/7 [4] = settings: screening approach, Tsai et al. 2017; cited from earlier work

SMILES: O=C(OC1CCCCC1)c1ccccc1O [CHS, cyclohexyl salicylate]
- OR2A4/7 protein expression in the HF bulb ([1]; ex vivo HFs (FIG. 2)): receptor downregulation
- K15+ stem cells in the basal layer of the bulge ([1]; ex vivo HFs (FIG. 3a)): did not seem to impact; also recorded: No differences
- CD34+ cells in the suprabulbar ORS ([1]; ex vivo HFs (FIG. 3b)): significantly increased
- HFs in anagen (hair cycle staging) ([2]; ex vivo HFs (FIG. 4a)): prolongs anagen; also recorded: increase
- hair matrix keratinocyte proliferation (Ki-67) ([2]; ex vivo HFs (FIG. 4b)): induces hair matrix keratinocyte proliferation
- intracellular Ca2+ signals (OR2A4/7 [3]): elicited transient intracellular Ca2+ signals
- agonism at OR2A4/7 (OR2A4/7 [4]): specific agonist

Source: patent publication US20250170150A1, “OLFACTORY RECEPTOR 2A4/7 AGONIST FOR PROMOTING HAIR GROWTH AND IMPROVING AESTHETIC ASPECT” (GIULIANI S.P.A., priority 2022, published 2025)
